Test results published in US10800791B2, “Triazole ACC inhibitors and uses thereof” (Gilead Apollo, LLC, priority 2015, dated 2020).
In brackets after ≈: the same amount, converted by molar mass. Like-named read-outs stand apart in the source and are kept apart here.

What was measured:
[1] = tested on: C. parapsilosis; experiment: Antifungal Activity Assay (broth microtiter MIC), C. parapsilosis; format: cell-based, Candida parapsilosis; conditions: Lodderomyces parapsilosis, ATCC22019, 48 h, ATCC 22019, 3 replicates, MIC recorded at 48 h, read-out: MIC, C. parapsilosis ATCC 22019
Procedure, shortened: (§1)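 Endpoint: lowest concentration visibly inhibiting growth relative to control after 48 h. Inoculum of 2.5×10^3 CFU/mL final in RPMI 1640+MOPS, prepared from overnight 35° C agar cultures; test compounds diluted in water to 128 μg/mL before plating.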

[2] = tested on: Fusarium virguliforme (Fv); experiment: Growth inhibition assay of fungal pathogens, Fv; format: cell-based; conditions: 48 h, read-out: Concentration at 90% Inhibition Fv
Procedure, shortened: (§2)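 Spores diluted in 17% V8 liquid media and incubated with compound at final 50, 10, 2 ppm or 2, 0.4, 0.08 ppm (2% DMSO). OD600 plus visual ratings at 24 and 48 hours, blank-subtracted; percent growth inhibition from 48 h readings relative to 2% DMSO control.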

[3] = tested on: C. krusei; experiment: Antifungal Activity Assay (broth microtiter MIC), C. krusei; format: cell-based, Candida krusei; conditions: Pichia kudriavzevii, ATCC6258, 48 h, ATCC 6258, 3 replicates, MIC recorded at 48 h, read-out: MIC, C. krusei ATCC 6258
Procedure, shortened: as §1

[4] = tested on: Collectotrichum graminicola (Cg); experiment: Growth inhibition assay of fungal pathogens, Cg; format: cell-based; conditions: 48 h, Collectotrichum graminicola, read-out: Concentration at 90% Inhibition Cg
Procedure, shortened: as §2

[5] = tested on: C. albicans; experiment: Antifungal Activity Assay (broth microtiter MIC), C. albicans; format: cell-based, Candida albicans; conditions: Candida albicans, ATCC90028, 48 h, ATCC 90028, 3 replicates, MIC recorded at 48 h, read-out: MIC, C. albicans ATCC 90028
Procedure, shortened: as §1

[6] = tested on: Rhizoctonia solani (Rs); experiment: Growth inhibition assay of fungal pathogens, Rs; format: cell-based; conditions: 48 h, mycelial plugs, read-out: Concentration at 90% Inhibition Rs
[7] = tested on: Diplodia maydis (Dm); experiment: Growth inhibition assay of fungal pathogens, Dm; format: cell-based; conditions: Stenocarpella maydis, 48 h, Diplodia maydis, read-out: Concentration at 90% Inhibition Dm
Procedure, shortened: as §2

[8] = tested on: Fusarium moniliforme (Fm); experiment: Growth inhibition assay of fungal pathogens, Fm; format: cell-based; conditions: Fusarium verticillioides, 48 h, Fusarium moniliforme, read-out: Concentration at 90% Inhibition Fm
Procedure, shortened: as §2

[9] = tested on: Phytophthora capsici (Pc); experiment: Growth inhibition assay of fungal pathogens, Pc; format: cell-based; conditions: 48 h, read-out: Concentration at 90% Inhibition Pc
Procedure, shortened: as §2

[10] = tested on: Septoria tritici (St); experiment: Growth inhibition assay of fungal pathogens, St; format: cell-based; conditions: Zymoseptoria tritici, 48 h, Septoria tritici, read-out: Concentration at 90% Inhibition St
Procedure, shortened: as §2

[11] = target: human (hACC2) (Homo sapiens, UniProt O00763); experiment: In vitro ACC inhibition assay (ADP-Glo), hACC2; format: biochemical; conditions: 5 nM ACC2, 20 μM ATP, 20 μM acetyl-CoA
Protocol: The detailed procedure is as follows. […] 10 μL ADP glo reagent was added. […] 20 μL kinase detection reagent was added.

[12] = growth inhibition at 48 hours vs 2% DMSO control
[13] = growth inhibition vs 2% DMSO control at 48 hours

Sequence of human (hACC2) (O00763 whole entry): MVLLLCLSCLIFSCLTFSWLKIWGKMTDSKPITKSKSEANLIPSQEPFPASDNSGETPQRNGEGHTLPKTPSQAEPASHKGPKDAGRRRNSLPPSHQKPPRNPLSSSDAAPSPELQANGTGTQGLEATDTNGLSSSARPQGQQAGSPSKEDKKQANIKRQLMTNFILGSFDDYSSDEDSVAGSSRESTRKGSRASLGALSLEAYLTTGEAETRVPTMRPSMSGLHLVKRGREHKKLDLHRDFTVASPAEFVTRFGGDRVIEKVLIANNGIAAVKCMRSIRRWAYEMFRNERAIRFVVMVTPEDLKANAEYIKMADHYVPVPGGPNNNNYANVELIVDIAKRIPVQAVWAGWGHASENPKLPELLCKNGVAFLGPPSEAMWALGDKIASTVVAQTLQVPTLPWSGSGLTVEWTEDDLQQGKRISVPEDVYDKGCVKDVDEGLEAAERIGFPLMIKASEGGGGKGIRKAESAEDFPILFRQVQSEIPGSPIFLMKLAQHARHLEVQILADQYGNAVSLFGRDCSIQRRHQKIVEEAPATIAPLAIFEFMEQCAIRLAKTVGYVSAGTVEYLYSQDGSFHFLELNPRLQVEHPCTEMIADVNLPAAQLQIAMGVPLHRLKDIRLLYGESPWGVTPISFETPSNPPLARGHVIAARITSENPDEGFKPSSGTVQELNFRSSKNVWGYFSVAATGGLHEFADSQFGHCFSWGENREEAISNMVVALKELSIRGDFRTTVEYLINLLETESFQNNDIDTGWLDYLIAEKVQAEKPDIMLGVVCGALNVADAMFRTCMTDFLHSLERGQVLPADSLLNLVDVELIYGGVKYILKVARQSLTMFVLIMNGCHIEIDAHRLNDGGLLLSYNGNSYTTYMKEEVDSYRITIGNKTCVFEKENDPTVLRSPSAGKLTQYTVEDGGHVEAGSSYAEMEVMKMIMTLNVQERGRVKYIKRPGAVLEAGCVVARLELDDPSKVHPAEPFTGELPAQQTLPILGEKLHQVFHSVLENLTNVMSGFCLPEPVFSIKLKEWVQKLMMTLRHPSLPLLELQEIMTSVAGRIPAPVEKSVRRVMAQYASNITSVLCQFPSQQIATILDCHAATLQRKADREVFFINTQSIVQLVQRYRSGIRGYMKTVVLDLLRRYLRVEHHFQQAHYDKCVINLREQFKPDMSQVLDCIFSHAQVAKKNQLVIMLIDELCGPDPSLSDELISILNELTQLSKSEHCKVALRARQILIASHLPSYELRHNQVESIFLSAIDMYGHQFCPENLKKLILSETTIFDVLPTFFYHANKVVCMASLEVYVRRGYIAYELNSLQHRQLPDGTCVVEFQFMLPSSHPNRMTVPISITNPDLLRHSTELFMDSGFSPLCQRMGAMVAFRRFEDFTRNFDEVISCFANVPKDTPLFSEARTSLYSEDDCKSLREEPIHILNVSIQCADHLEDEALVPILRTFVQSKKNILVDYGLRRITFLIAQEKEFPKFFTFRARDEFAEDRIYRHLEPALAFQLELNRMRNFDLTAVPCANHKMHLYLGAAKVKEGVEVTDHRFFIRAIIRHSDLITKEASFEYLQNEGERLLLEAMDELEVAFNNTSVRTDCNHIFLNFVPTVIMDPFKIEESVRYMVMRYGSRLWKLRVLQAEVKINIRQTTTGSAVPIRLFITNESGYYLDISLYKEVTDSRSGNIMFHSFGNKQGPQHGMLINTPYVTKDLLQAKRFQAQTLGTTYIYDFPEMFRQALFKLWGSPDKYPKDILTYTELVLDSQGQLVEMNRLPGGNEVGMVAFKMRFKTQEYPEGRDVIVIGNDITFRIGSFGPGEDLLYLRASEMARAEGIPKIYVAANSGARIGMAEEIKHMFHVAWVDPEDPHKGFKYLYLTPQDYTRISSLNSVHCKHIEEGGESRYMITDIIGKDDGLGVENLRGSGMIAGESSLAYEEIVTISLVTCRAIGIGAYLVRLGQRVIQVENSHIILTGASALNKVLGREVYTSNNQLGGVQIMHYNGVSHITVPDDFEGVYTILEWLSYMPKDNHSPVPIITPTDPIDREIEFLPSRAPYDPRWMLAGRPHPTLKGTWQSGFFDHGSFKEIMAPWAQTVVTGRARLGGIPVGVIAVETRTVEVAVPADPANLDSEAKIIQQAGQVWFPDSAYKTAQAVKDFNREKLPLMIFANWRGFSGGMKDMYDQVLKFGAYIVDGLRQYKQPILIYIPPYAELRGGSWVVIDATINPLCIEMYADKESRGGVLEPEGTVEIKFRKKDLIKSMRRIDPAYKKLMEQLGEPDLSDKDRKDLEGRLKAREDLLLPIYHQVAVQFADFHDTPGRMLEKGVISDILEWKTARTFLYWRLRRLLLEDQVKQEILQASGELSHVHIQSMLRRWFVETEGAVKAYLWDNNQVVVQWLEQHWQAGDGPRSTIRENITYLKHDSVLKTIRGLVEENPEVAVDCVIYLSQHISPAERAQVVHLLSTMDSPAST

Compound | MIC ([1]; Table 3a) [µg/mL] | MIC ([1]; Table 3b (additional results)) [µg/mL] | IC90 [2, 12] [µg/mL] | IC90 [2, 13] [µg/mL] | MIC ([3]; Table 3a) [µg/mL] | MIC ([3]; Table 3b (additional results)) [µg/mL] | IC90 [4, 12] [µg/mL] | IC90 [4, 13] [µg/mL] | MIC ([5]; Table 3a) [µg/mL] | MIC ([5]; Table 3b (additional results)) [µg/mL] | IC90 [6, 12] [µg/mL] | IC90 [6, 13] [µg/mL] | IC90 [7, 12] [µg/mL] | IC90 [7, 13] [µg/mL] | IC90 [8, 12] [µg/mL] | IC90 [8, 13] [µg/mL] | IC90 [9, 12] [µg/mL] | IC90 [9, 13] [µg/mL] | IC90 [10, 12] [µg/mL] | IC90 [10, 13] [µg/mL] | also measured
COc1ccc(F)cc1[C@H](Cn1c(=O)n(C(C)(C)C(=O)N2CC=CC2)c(=O)c2c(C)c(-n3nccn3)sc21)OC[C@@H](C)O [Compound I-63, 3-(1-(2,5-dihydro-1H-pyrrol-1-yl)-2-methyl-1-oxopropan-2-yl)-1-((R)-2-(5-fluoro-2-methoxyphenyl)-2-((R)-2-hydroxypropoxy)ethyl)-5-methyl-6-(2H-1,2,3-triazol-2-yl)thieno[2,3-d]pyrimidine-2,4(1H,3H)-dione] | 1.1 to 2 (≈ 1.8 to 3.26 µM) | 2.01 to 4 (≈ 3.28 to 6.53 µM) | 0.4 (≈ 0.653 µM) | 0.4 (≈ 0.653 µM) | 0.25 to 1 (≈ 0.408 to 1.63 µM) | > 4.01 | 0.4 (≈ 0.653 µM) | 0.4 (≈ 0.653 µM) | 0.25 to 1 (≈ 0.408 to 1.63 µM) | 1.01 to 2 (≈ 1.65 to 3.26 µM) | 0.4 (≈ 0.653 µM) | 0.4 (≈ 0.653 µM) | 2 (≈ 3.26 µM) | 2 (≈ 3.26 µM) | 0.08 (≈ 0.131 µM) | 0.08 (≈ 0.131 µM) | > 50 | > 50 | > 50 | > 50 | IC50 ([11]; Table 2a): 5 to 10 nM; IC50 ([11]; Table 2b, additional results): 5 to 10 nM
COCCO[C@@H](Cn1c(=O)n(C(C)C(=O)N2CCCC2)c(=O)c2c(C)c(-n3nccn3)sc21)c1cc(F)ccc1OC (stereo partly drawn) [Compound I-64, 1-((R)-2-(5-fluoro-2-methoxyphenyl)-2-(2-methoxy-ethoxy)ethyl)-5-methyl-3-(1-oxo-1-(pyrrolidin-1-yl)propan-2-yl)-6-(2H-1,2,3-triazol-2-yl)thieno[2,3-d]pyrimidine-2,4(1H,3H)-dione] | 2.1 to 4 (≈ 3.5 to 6.66 µM) | 1.01 to 2 (≈ 1.68 to 3.33 µM) | 0.4 (≈ 0.666 µM) | 0.4 (≈ 0.666 µM) | 2.1 to 4 (≈ 3.5 to 6.66 µM) | 2.01 to 4 (≈ 3.35 to 6.66 µM) | 10 (≈ 16.6 µM) | > 50 | 2.1 to 4 (≈ 3.5 to 6.66 µM) | 2.01 to 4 (≈ 3.35 to 6.66 µM) | 2 (≈ 3.33 µM) | 2 (≈ 3.33 µM) | 10 (≈ 16.6 µM) | > 50 | 0.4 (≈ 0.666 µM) | 0.4 (≈ 0.666 µM) | > 50 | > 50 | > 50 | > 50 | IC50 ([11]; Table 2a): 10 to 40 nM; IC50 ([11]; Table 2b, additional results): 10 to 40 nM
